In patent US9931327B2, “Derivatives of 1-phenyl-2-pyridinyl alkyl alcohols as phosphodiesterase inhibitors” (Chiesi Farmaceutici S.p.A., priority 2011, dated 2018):

System: LPS-induced TNF-α release in peripheral blood mononuclear cells (PBMCs)
Test: In vitro determination of PDE4 inhibitory activity in the PBMCs assay (LPS-induced TNF-α release)
Format: cell-based, human
Conditions: PBMC; human PBMCs, LPS 3 ng/ml, 18 hours, TNF-α by ELISA; read-out: PDE4 inhibition (IC50, 50% inhibition of LPS-induced TNF-α release)
Method: The assay, which is based on the known inhibitory activity exerted by PDE4 inhibitors on the lipopolyshaccarides (LPS)-induced tumour necrosis factor-alpha (TNF-α release in peripheral blood mononuclear cells (PBMCs), was performed according to a method previously described (Hatzelmann A et al., J. Pharmacol. Exp. Ther., 2001; 297:267-279; and Draheim R et al., J. Pharmacol. Exp. Ther., 2004; 308:555-563, which are incorporated herein by reference in their entireties). Cryopreserved human PBMCs, (100 l/well) were incubated in 96-well plates (10^5 cells/well), for 30 minutes, in the presence or absence (50 microl) of the test compounds whose concentrations ranged from 10^−12 M to 10^−6 M or from […] to 10^−7 M. Subsequently, LPS (3 ng/ml) was added.
After 18 hours of incubation at 37° C. in a humidified incubator under an atmosphere of 95% air and 5% CO2, culture medium was collected and TNF-α measured by ELISA. The results of the tested compounds, representatives of the invention, expressed as mean±95% confidence limits of the molar concentration of the test compound producing 50% inhibition of LPS-induced TNF-α release (IC50) are shown in the following Table: […]

Row | Compound | IC50
1 | O=C(O[C@@H](Cc1c(Cl)c[n+]([O-])cc1Cl)c1ccc(OC(F)F)c(OCC2CC2)c1)C1SCCN1S(=O)(=O)C1CCCCC1 (stereo partly drawn) [Compound 71, 3,5-dichloro-4-((2S)-2-(3-(cyclohexylsulfonyl)thiazolidine-2-carbonyloxy)-2-(3-(cyclopropylmethoxy)-4-(difluoromethoxy)phenyl)ethyl)pyridine 1-oxide] | 1 to 10 nM
2 | Nc1ccc(S(=O)(=O)N2CCS[C@H]2C(=O)O[C@@H](Cc2c(Cl)c[n+]([O-])cc2Cl)c2ccc(OC(F)F)c(OCC3CC3)c2)cc1 [Compound 150, 4-((S)-2-((S)-3-(4-aminophenylsulfonyl)thiazolidine-2-carbonyloxy)-2-(3-(cyclopropylmethoxy)-4-(difluoromethoxy)phenyl)ethyl)-3,5-dichloropyridine 1-oxide] | < 0.1 nM
3 | COc1ccc(S(=O)(=O)N2CCSC2C(=O)O[C@@H](Cc2c(Cl)c[n+]([O-])cc2Cl)c2ccc(OC(F)F)c(OCC3CC3)c2)cc1C(=O)N1CCOCC1 (stereo partly drawn) [Compound 128, 3,5-dichloro-4-((2S)-2-(3-(cyclopropylmethoxy)-4-(difluoromethoxy)phenyl)-2-(3-(4-methoxy-3-(morpholine-4-carbonyl)phenylsulfonyl)thiazolidine-2-carbonyloxy)ethyl)pyridine 1-oxide] | < 0.1 nM
4 | O=C(O[C@@H](Cc1c(Cl)c[n+]([O-])cc1Cl)c1ccc(OC(F)F)c(OCC2CC2)c1)C1SCCN1S(=O)(=O)c1cccnc1 (stereo partly drawn) [Compound 66, 3,5-dichloro-4-((2S)-2-(3-(cyclopropylmethoxy)-4-(difluoromethoxy)phenyl)-2-(3-(pyridin-3-ylsulfonyl)thiazolidine-2-carbonyloxy)ethyl)pyridine 1-oxide] | < 0.1 nM
5 | O=C(O[C@@H](Cc1c(Cl)c[n+]([O-])cc1Cl)c1ccc(OC(F)F)c(OCC2CC2)c1)[C@@H]1SCCN1C(=O)c1ccccc1 [Compound 186, 4-((S)-2-((S)-3-benzoylthiazolidine-2-carbonyloxy)-2-(3-(cyclopropylmethoxy)-4-(difluoromethoxy)phenyl)ethyl)-3,5-dichloropyridine 1-oxide] | 0.1 to 1 nM
6 | NC(=O)c1ccc(C(=O)N2CCS[C@H]2C(=O)O[C@@H](Cc2c(Cl)c[n+]([O-])cc2Cl)c2ccc(OC(F)F)c(OCC3CC3)c2)cc1 [Compound 37, 4-((S)-2-((S)-3-(4-carbamoylbenzoyl)thiazolidine-2-carbonyloxy)-2-(3-(cyclopropylmethoxy)-4-(difluoromethoxy)phenyl)ethyl)-3,5-dichloropyridine 1-oxide] | < 0.1 nM
7 | CN(C)C(=O)c1cccc(S(=O)(=O)N2CCCC[C@@H]2C(=O)O[C@@H](Cc2c(Cl)c[n+]([O-])cc2Cl)c2ccc(OC(F)F)c(OCC3CC3)c2)c1 [Compound 83, 3,5-dichloro-4-((S)-2-(3-(cyclopropylmethoxy)-4-(difluoromethoxy)phenyl)-2-((R)-1-(3-(dimethylcarbamoyl)phenylsulfonyl)piperidine-2-carbonyloxy)ethyl)pyridine 1-oxide] | < 0.1 nM
8 | O=C(O[C@@H](Cc1c(Cl)c[n+]([O-])cc1Cl)c1ccc(OC(F)F)c(OCC2CC2)c1)[C@@H]1SCCN1C(=O)c1cccc(-c2cnco2)c1 [Compound 41, 3,5-dichloro-4-((S)-2-(3-(cyclopropylmethoxy)-4-(difluoromethoxy)phenyl)-2-((S)-3-(3-(oxazol-5-yl)benzoyl)thiazolidine-2-carbonyloxy)ethyl)pyridine 1-oxide] | 0.1 to 1 nM
9 | Cn1ccnc1S(=O)(=O)N1CCS[C@H]1C(=O)O[C@@H](Cc1c(Cl)cncc1Cl)c1ccc(OC(F)F)c(OCC2CC2)c1 [Compound 243, (S)-((S)-1-(3-(cyclopropylmethoxy)-4-(difluoromethoxy)phenyl)-2-(3,5-dichloropyridin-4-yl)ethyl) 3-(1-methyl-1H-imidazol-2-ylsulfonyl)thiazolidine-2-carboxylate] | 0.1 to 1 nM
10 | CN(C)C(=O)c1cccc(C(=O)N2CCS[C@H]2C(=O)O[C@@H](Cc2c(Cl)c[n+]([O-])cc2Cl)c2ccc(OC(F)F)c(OCC3CC3)c2)c1 [Compound 187, 3,5-dichloro-4-((S)-2-(3-(cyclopropylmethoxy)-4-(difluoromethoxy)phenyl)-2-((S)-3-(3-(dimethylcarbamoyl)benzoyl)thiazolidine-2-carbonyloxy)ethyl)pyridine 1-oxide] | 0.1 to 1 nM
11 | CN1CCN(CCS(=O)(=O)N2CCS[C@H]2C(=O)O[C@@H](Cc2c(Cl)c[n+]([O-])cc2Cl)c2ccc(OC(F)F)c(OCC3CC3)c2)CC1 [Compound 288, 3,5-dichloro-4-((S)-2-(3-(cyclopropylmethoxy)-4-(difluoromethoxy)phenyl)-2-((S)-3-(2-(4-methylpiperazin-1-yl)ethylsulfonyl)thiazolidine-2-carbonyloxy)ethyl)pyridine 1-oxide] | 0.1 to 1 nM
12 | CN1CCN(C(=O)c2cccc(S(=O)(=O)N3CCS[C@H]3C(=O)O[C@@H](Cc3c(Cl)c[n+]([O-])cc3Cl)c3ccc(OC(F)F)c(OCC4CC4)c3)c2)CC1 [Compound 132, 3,5-dichloro-4-((S)-2-(3-(cyclopropylmethoxy)-4-(difluoromethoxy)phenyl)-2-((S)-3-(3-(4-methylpiperazine-1-carbonyl)phenylsulfonyl)thiazolidine-2-carbonyloxy)ethyl)pyridine 1-oxide] | < 0.1 nM
13 | COC(=O)c1cc(CN2CCCC2C(=O)O[C@@H](Cc2c(Cl)c[n+]([O-])cc2Cl)c2ccc(OC(F)F)c(OCC3CC3)c2)oc1C (stereo partly drawn) [Compound 15, 3,5-dichloro-4-((2S)-2-(3-(cyclopropylmethoxy)-4-(difluoromethoxy)phenyl)-2-(1-((4-(methoxycarbonyl)-5-methylfuran-2-yl)methyl)pyrrolidine-2-carbonyloxy)ethyl)pyridine 1-oxide] | 1 to 10 nM
14 | CS(=O)(=O)c1ccc(S(=O)(=O)N2CCSC2C(=O)O[C@@H](Cc2c(Cl)c[n+]([O-])cc2Cl)c2ccc(OC(F)F)c(OCC3CC3)c2)cc1 (stereo partly drawn) [Compound 92, 3,5-dichloro-4-((2S)-2-(3-(cyclopropylmethoxy)-4-(difluoromethoxy)phenyl)-2-(3-(4-(methylsulfonyl)phenylsulfonyl)thiazolidine-2-carbonyloxy)ethyl)pyridine 1-oxide] | < 0.1 nM
15 | O=C(O[C@@H](Cc1c(Cl)c[n+]([O-])cc1Cl)c1ccc(OC(F)F)c(OCC2CC2)c1)[C@@H]1CCCCN1S(=O)(=O)c1cccnc1 [Compound 99, 3,5-dichloro-4-((S)-2-(3-(cyclopropylmethoxy)-4-(difluoromethoxy)phenyl)-2-((S)-1-(pyridin-3-ylsulfonyl)piperidine-2-carbonyloxy)ethyl)pyridine 1-oxide] | 1 to 10 nM
16 | CNS(=O)(=O)c1ccc(S(=O)(=O)N2CCS[C@H]2C(=O)O[C@@H](Cc2c(Cl)c[n+]([O-])cc2Cl)c2ccc(OC(F)F)c(OCC3CC3)c2)cc1 [Compound 94, 3,5-dichloro-4-((S)-2-(3-(cyclopropylmethoxy)-4-(difluoromethoxy)phenyl)-2-((S)-3-(4-(N-methylsulfamoyl)phenylsulfonyl)thiazolidine-2-carbonyloxy)ethyl)pyridine 1-oxide] | < 0.1 nM
17 | O=C(O[C@@H](Cc1c(Cl)c[n+]([O-])cc1Cl)c1ccc(OC(F)F)c(OCC2CC2)c1)[C@@H]1SCCN1C(=O)c1ccc(N2CCS(=O)(=O)CC2)cc1 [Compound 36] | 0.1 to 1 nM
18 | O=C(O[C@@H](Cc1c(Cl)c[n+]([O-])cc1Cl)c1ccc(OC(F)F)c(OCC2CC2)c1)C1SCCN1S(=O)(=O)c1ccc(F)cc1F (stereo partly drawn) [Compound 67, 3,5-dichloro-4-((2S)-2-(3-(cyclopropylmethoxy)-4-(difluoromethoxy)phenyl)-2-(3-(2,4-difluorophenylsulfonyl)thiazolidine-2-carbonyloxy)ethyl)pyridine 1-oxide] | 0.1 to 1 nM
19 | O=C1NC(=O)c2cc(S(=O)(=O)N3CCSC3C(=O)O[C@@H](Cc3c(Cl)c[n+]([O-])cc3Cl)c3ccc(OC(F)F)c(OCC4CC4)c3)ccc21 (stereo partly drawn) [Compound 58, 3,5-dichloro-4-((2S)-2-(3-(cyclopropylmethoxy)-4-(difluoromethoxy)phenyl)-2-(3-(1,3-dioxoisoindolin-5-ylsulfonyl)thiazolidine-2-carbonyloxy)ethyl)pyridine 1-oxide] | 0.1 to 1 nM
20 | CN(C)C(=O)c1cccc(S(=O)(=O)N2CCS[C@H]2C(=O)O[C@@H](Cc2c(Cl)c[n+]([O-])cc2Cl)c2ccc(OC(F)F)c(OCC3CC3)c2)c1 [Compound 52, 3,5-dichloro-4-((S)-2-(3-(cyclopropylmethoxy)-4-(difluoromethoxy)phenyl)-2-((S)-3-(3-(dimethylcarbamoyl)phenylsulfonyl)thiazolidine-2-carbonyloxy)ethyl)pyridine 1-oxide] | < 0.1 nM
21 | Cc1noc(C)c1S(=O)(=O)N1CCSC1C(=O)O[C@@H](Cc1c(Cl)c[n+]([O-])cc1Cl)c1ccc(OC(F)F)c(OCC2CC2)c1 (stereo partly drawn) [Compound 76, 3,5-dichloro-4-((2S)-2-(3-(cyclopropylmethoxy)-4-(difluoromethoxy)phenyl)-2-(3-(3,5-dimethylisoxazol-4-ylsulfonyl)thiazolidine-2-carbonyloxy)ethyl)pyridine 1-oxide] | 0.1 to 1 nM
